Measured values published in US7060692B2, “Active ingredient combinations comprising insecticidal and acaricidal properties” (priority 2000, dated 2006).

Legend:
[1] = test system: Myzus persicae; test: Myzus test (cabbage leaves dipped); assay type: in vivo; details: single active compound, 1.6 ppm, cabbage leaves (Brassica oleracea) dipped
Procedure: (§1) To produce a suitable preparation of active compound, 1 part by weight of active compound is mixed with the stated amounts of solvent and emulsifier, and the concentrate is diluted with water to the desired concentrations.
Cabbage leaves (Brassica oleracea), which are heavily infested by the peach aphid (Myzus persicae) are treated by being dipped into the preparation of active compound of the desired concentration.
After the desired period of time, the kill in % is determined. 100% means that all animals have been killed; 0% means that none of the animals have been killed. The kill rates determined are calculated using Colby's formula.

[2] = test system: Aphis gossypii; test: Aphis gossypii test (cotton leaves dipped); assay type: in vivo; details: single active compound, 1.6 ppm, cotton leaves (Gossypium hirsutum) dipped
Procedure: as §1
Cotton leaves (Gossypium hirsutum), which are heavily infested by the cotton aphid (Aphis Gossypii) are treated by being dipped into the preparation of active compound of the desired concentration.
After the desired period of time, the kill in % is determined. 100% means that all aphids have been killed; 0% means that none of the aphids have been killed. The kill rates determined are calculated using Colby's formula.

## CC[S+]([O-])CCSP(=O)(OC)OC (centres unmarked) [oxydemeton-methyl]
[1]
  Kill rate in % after 6d: 0%

## Cc1nc(N(C)C)nc(OC(=O)N(C)C)c1C [pirimicarb]
[2]
  Kill rate in % after 6d: 5%
